Test: solubility of matrix compounds for producing devices from solution
Assay type: physicochemical
Settings: compounds dissolved in toluene or chlorobenzene for spin coating of the emission layer (matrix with 5% by weight emitter)
Experimental: Materials according to the invention are used from solution, where they result in simple devices having nevertheless good properties. The production of such components is based on the production of polymeric light-emitting diodes (PLEDs), which has already been described many times in the literature (for example in WO 2004/037887 A2). In the present case, the compounds according to the invention are dissolved in toluene or chlorobenzene. The concentration employed in the examples given here is 20% by weight of the emitter (T-1 or compound 18) and 80% by weight of the matrix materials (compounds 5 to 17). The typical solids content of such solutions is between 16 and 25 g/l if, as here, the typical layer thickness of 80 nm for a device is to be achieved by means of spin coating.
The concentration employed in the examples given here is 5% by weight of the emitter (SEB-095, Merck) and 95% by weight of the matrix materials (compounds 28 and 29). The typical solids content of such solutions is […] if, as here, the typical layer thickness of 50 nm for a device is to be achieved by means of spin coating.

Compound	solubility
c1ccc(-c2c3ccccc3c(-c3cccc4c3ccc3cc5ccccc5cc34)c3ccccc23)cc1 [Compound 25]	poor solubility
c1ccc(-c2cccc(-c3c4ccccc4c(-c4cccc5c4ccc4cc6ccccc6cc45)c4ccccc34)c2)cc1 [Compound 27]	poor solubility
c1ccc(-c2cc(-c3ccccc3)cc(-c3c4ccccc4c(-c4cccc5c4ccc4cc6ccccc6cc45)c4ccccc34)c2)cc1 [Compound 28]	improved solubility
c1ccc(-c2cc(-c3ccccc3)cc(-c3cccc(-c4c5ccccc5c(-c5cccc6c5ccc5cc7ccccc7cc56)c5ccccc45)c3)c2)cc1 [Compound 29]	improved solubility

— patent US20120238105A1, “FORMULATIONS FOR THE PRODUCTION OF ELECTRONIC DEVICES” (Merck Patent GmbH, priority 2009, published 2012)
